{
  "source": "patent US6403635B1",
  "about": "“Method of treating atherosclerosis or restenosis using microtubule stabilizing agent” (The United States of America as represented by the …, priority 1993, dated 2002)",
  "key": {"VSMC [1]": {"tested_on": "VSMC", "assay": "Bromodeoxyuridine (BrDU) incorporation in cultured VSMC", "format": "cell-based, rat", "settings": "various 2H2O concentrations", "description": "Incorporation of the thymidine analog, bromodeoxyuridine (BrDU) was measured to determine the effect of deuterium oxide on VSMC DNA synthesis. […] Following 20 hr incubation in 10% FCS+DMEM at various ^2H2O concentrations, 10 μM BrDU was added and the incubation continues for an additional 4 hr. […] The cells were incubated for 2 hr with 1N HCl to denature the DNA, and subsequently washed 4 times in PBS. Mouse monoclonal BrDU antibody (Boehringer Mannheim) in 2% BSA-PBS was incubated with cells for 1 hr. After PBS wash, goat anti-mouse antibody conjugated with alkaline phosphatase was added. Cell nuclei containing BrDU substituted for thymidine stained red with alkaline phosphatase substrate, while all other nuclei stained blue. The fraction of BrDU-positive nuclei was compared between control (defined as 100%) and that of the deuterium oxide-pretreated groups."}, "[2]": {"tested_on": "Vascular Smooth Muscle Cells (VSMCs)", "assay": "Chemoinvasion (Boyden chamber) assay, PDGF-BB as attractant", "format": "cell-based, rat", "description": "(§1) Vascular Smooth Muscle Cells (VSMCs) were isolated by collagenase/elastase enzymatic digestion of the medial layers of the rat aorta obtained from 6 month old Wistar rats. The cells were maintained in culture with 10% fetal calf serum, high glucose DMEM, and amino acid supplement. Cell cultures were maintained at 37° C. in 5% CO2.\n(§2) Chemoinvasion (Boyden chamber) assays were performed using modified Boyden chamber (Albini, et al. (1987) Cancer Res., 47:3239-3245), comprising an upper chamber separated from a lower chamber by a porous PVPF filter. PVPF filters (8 μm pore diameter, Nucleopore Filters, Pleasanton, Calif.) were coated and air dried consecutively with solutions containing 100 μg/ml type I collagen, 5 μg/ml fibronectin, and 5 μg reconstituted basement membrane (produced from the Englebreth-Holm-Swarm tumor (Kleinman, et al. (1986) Biochemistry, 25:312-318), producing a continuous 10 μm thick coating of matrix material. Boyden chambers were assembled by adding 10 ng/ml PDGF BB in DMEM to the lower (chemoattractant) chamber. Cells (approximately 200,000) suspended in DMEM containing 0.1% BSA were then added to the upper chamber. […] The chambers were then incubated for 4 hours at 37° C. in a 5% CO2 atmosphere. At the end of the incubation period, the cells were fixed and stained with hematoxylin and eosin. The cells on the upper surface (non-invaders) were mechanically removed and the cells on the underside of the filter (invaders) were counted under 400× magnification (four random fields were counted per filter and all experiments were run in triplicate, and each triplicate assay was repeated at least three times on separate occasions using different VSMC preparations). Chemotaxis was assayed in analogous fashion in the Boyden chambers described above, except that the reconstituted basement membrane was omitted.\nas §1, with “VSMC's” for “Vascular Smooth Muscle Cells (VSMCs)”, “collagense/elastase” for “collagenase/elastase”\nChemoinvasion assays were performed using a modified Boyden chamber, consisting of an upper chamber separated from a lower chamber by a porous PVPF filter. PVPF filters (8 μm pore diameter, Nucleopore Filters Pleasanton, Calif.) were coated and air dried consecutively with solutions containing 100 μg/ml type I collagen, […] fibronectin, and 5 μg reconstituted basement membrane (produced from the Englebreth-Holm-Swarm tumor), producing a continuous 10 μm thick coating of matrix material. Boyden chambers were assembled with PDGF-BB 10 ng/ml in DMEM in the lower (chemoattractant) chamber, then cells (approximately 200,000) suspended in DMEM containing 0.1% BSA were added to the upper chamber. Some of the cells used in these assays were pretreated 18 hours with deuterium oxide (25%, 50%, or 75% v/v substitution for H2O) in culture. In the deuterium oxide-treated groups, ^2H2O substituted DMEM (v/v) was added to the upper and lower chambers at the same concentration as that used for pretreatment. The chambers were then incubated for 4 hours at 37° C. in a humidified 5% CO2 atmosphere. […] After the cells on the upper surface of the filter (non-invaders) were mechanically removed, the cells on the underside (invaders) were counted under 400 X magnification (four random fields were counted per filter and all experiments were run in triplicate)."}, "polymerized tubulin": {"tested_on": "polymerized tubulin", "assay": "Microtubule bundling in cultured VSMC (anti-tubulin antibody labelling)", "format": "cell-based, rat", "text": "In deuterium oxide-treated cells, ^2H2O (v/v) was substituted for water (H2O) in the preparation of the DMEM from concentrated stock. […], cells were fixed in 3.7% formalin, premeabilized with 1% Triton X-100, and polymerized tubulin was labelled with mouse anti-β-tubulin antibody (SMI 62 monoclonal antibody to polymerized β-tubulin, Paragon Biotec, Inc., Baltimore, Md.). […] Representative light photomicrographs from (FIG. 5A) control, and (FIG. 5B) 75% deuterium oxide treated VSMCs are shown in FIGS. 5A-5B."}, "VSMC [3]": {"tested_on": "VSMC", "assay": "Chemotaxis assay (Boyden chamber without basement membrane proteins), PDGF-BB as attractant", "format": "cell-based, rat", "settings": "filter coated only with fibronectin and collagen I", "description": "as §2, with “Chemotaxis was assayed in analogous fashion in the Boyden chambers described above, except that the reconstituted basement membrane was omitted.” left out"}, "rat carotid artery": {"tested_on": "rat carotid artery", "assay": "Balloon catheter injury of the rat carotid artery (restenosis model)", "format": "in vivo, Wistar rats", "description": "Under a protocol approved by the National Institute on Aging Animal Care and use Committee, 6 month Wistar rats from the GRC colony wee anesthetized with 20 mg/kg body weight phenobarbital, 2 mg/kg body weight ketamine, and 4 mg/kg body weight xylazine intraperitoneally. The left external carotid artery was cannulated with 2-French Fogarty embolectomy catheter, inflated with saline and passed three times up and down the common carotid artery to produce a distending, deendothelializing injury. […] Cross sections of the carotids were mounted on microscope slides and stained with hematoxylin and eosin stain. The image of the carotid artery was projected onto a digitizing board and the cross sectional areas of the intima and the media were measured. As indicated in the prior art (Ferns, G. A. A. et al. (1991) Science, 253:1129-1132) the rat carotid artery injury model of restenosis can be useful in the study of human restenosis, and indicate potential therapeutic action in humans."}, "[4]": {"tested_on": "VSMC collagenase secretion", "assay": "Gelatinase zymography of Boyden assay supernatants", "format": "cell-based, rat", "settings": "taxol range 30 pM to 100 nM", "description": "Gelatinase zymography was performed on the superannuates removed after the 4 hour conclusion of the Boyden assays described above. Gelatin-degrading proteinases secreted into the media by VSMCs were analyzed by non-reducing sodium dodecyl sulfate-polyacrylamide gel electrophoresis in 10% polyacrylamide gels containing 0.1% (w/v) gelatin. Following electrophoresis, the gelatinases were renatured by incubating the gel for 30 min. at 23° C. in 2.5% (v/v) Triton X-100 followed by 18 hour incubation at 37° C. in 0.2 M NaCl, 5 mM CaCl2 0.02% Brij 35 (w/v), 50 mM Tris-HCI (pH 7.6). The gels were stained for 90 minutes with 0.5% Coomassie Brilliant Blue G-250 and destained with 10% acetic acid, 40% methanol. Gelatinolytic activity was indicated by a clear band against the background of the blue-stained gelatin."}, "c-fos mRNA expression": {"tested_on": "c-fos mRNA expression", "assay": "PDGF-BB-stimulated c-fos mRNA expression in cultured VSMC", "format": "cell-based, rat"}, "VSMC [5]": {"tested_on": "VSMC", "assay": "[3H]thymidine incorporation in cultured VSMC"}, "[6]": {"settings": "cross sectional area, 2 mg/kg i.p., 11 days after injury"}},
  "data": [
    {"smiles": "[2H]O[2H]", "note": "[deuterium oxide]", "values": [
      {"measurement": "effect on cultured VSMC proliferation and DNA synthesis (BrDU incorporation)", "setting": "VSMC [1]", "result": "inhibited cultured VSMC proliferation and DNA synthesis in a dose-dependent fashion"},
      {"measurement": "inhibition of VSMC Boyden chamber invasion at 75% 2H2O", "setting": "[2]; 75% 2H2O", "result": "nearly complete inhibition"},
      {"measurement": "half-maximal inhibition of PDGF-mediated VSMC Boyden chamber invasion", "setting": "[2]; 18 h pretreatment, v/v substitution for H2O", "result": 25, "unit": "% 2H2O"},
      {"measurement": "microtubule hyperpolymerization in cultured VSMCs", "setting": "polymerized tubulin; 18 hours with 25%, 50% or 75% deuterium oxide", "result": "dose-dependent microtubule hyperpolymerization"}
    ]},
    {"smiles": "CC(=O)O[C@H]1C(=O)[C@@]2(C)[C@H]([C@H](OC(=O)c3ccccc3)[C@]3(O)C[C@H](OC(=O)[C@H](O)[C@@H](NC(=O)c4ccccc4)c4ccccc4)C(C)=C1C3(C)C)[C@]1(OC(C)=O)CO[C@@H]1C[C@@H]2O", "note": "[Taxol]", "values": [
      {"measurement": "outcome of chemotaxis assay compared with chemoinvasion assay", "setting": "VSMC [3]", "result": "identical outcome"},
      {"measurement": "reduction of neointimal area compared to vehicle treated animals", "setting": "rat carotid artery; 2 mg/kg i.p. once daily, 11 days after injury", "result": 70, "unit": "%"},
      {"measurement": "Intima", "setting": "rat carotid artery; [6]", "result": "0.03 ± 0.01", "unit": "mm^2"},
      {"measurement": "Media", "setting": "rat carotid artery; [6]", "result": "0.16 ± 0.02", "unit": "mm^2"},
      {"measurement": "I/M", "setting": "rat carotid artery; intima/media ratio, 2 mg/kg i.p., 11 days after injury", "result": "0.18 ± 0.04"},
      {"measurement": "discernible neointima in taxol-treated animals", "setting": "rat carotid artery; several of the taxol-treated animals, denuded endothelium present", "result": "virtually no discernible neointimal"},
      {"measurement": "level of VSMC collagenase secretion compared to control", "setting": "[4]", "result": "did not vary significantly"},
      {"measurement": "IC50", "setting": "c-fos mRNA expression; Rattus norvegicus, cultured VSMC, read-out: half-maximal inhibitory concentration, PDGF-BB-stimulated c-fos mRNA expression", "result": 1, "unit": "nM"},
      {"measurement": "inhibition of c-fos mRNA expression above 20 nM", "setting": "c-fos mRNA expression; above 20 nM taxol", "result": "essentially complete inhibition"},
      {"measurement": "inhibition of VSMC invasion at 30 pM", "setting": "[2]; 30 pM (the lowest dose used)", "result": "significant inhibition"},
      {"measurement": "inhibition of VSMC invasion at 100 nM", "setting": "[2]; 100 nM taxol", "result": "essentially complete inhibition"},
      {"measurement": "IC50", "setting": "[2]; Rattus norvegicus, VSMC, 18 h pretreatment, PDGF-BB attractant, 4 h incubation, read-out: half-maximal inhibitory concentration, VSMC invasion", "result": 0.5, "unit": "nM"},
      {"measurement": "inhibition of [3H]thymidine incorporation at 1 nM", "setting": "VSMC [5]; 1 nM taxol", "result": "significant inhibition"},
      {"measurement": "inhibition of [3H]thymidine incorporation at 100 nM", "setting": "VSMC [5]; 100 nM taxol", "result": "essentially complete inhibition"},
      {"measurement": "IC50", "setting": "VSMC [5]; Rattus norvegicus, VSMC, read-out: half-maximal inhibitory concentration, VSMC [3H]thymidine incorporation", "result": 5, "unit": "nM"},
      {"measurement": "microtubule bundling in VSMC's cultured on plastic", "setting": "polymerized tubulin; 0.1, 1, 10 nM taxol, 18-hour pre-treatment", "result": "dose-dependent microtubule bundling"}
    ]}
  ]
}
